Measured values as given in patent US11878970B2, “Allosteric chromenone inhibitors of phosphoinositide 3-kinase (PI3K) for the treatment of disease” (Petra Pharma Corporation, priority 2021, dated 2024).
pIC50: −log10 of the molar value.

How the values were obtained:
[1] = molecular target: T1, PI3K-α (PIK3CA) H1047R mutant, p110α/p85α complex (Homo sapiens, UniProt P42336, H1047R); assay: PI3K-alpha kinase (PIK3CA) biochemical activity, ADP-Glo, H1047R mutant; details: Soy PI lipid substrate
T1 construct: Recombinant, catalytically active human full length PIK3KA Wild-type and H1047R mutant; 6×His (N); purchased EMD Millipore Sigma 14-792M
Outline: (§1)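 ADP formation measured by ADP-Glo luminescence after reaction at 27 °C to about 10% ATP turnover, using 20 uM ATP, 50 uM PIP2diC8 or soy PI lipid, HEPES pH 7.4 with MgCl2. Enzyme (1-5 nM WT or H1047R p110α/p85α) and compound preincubated 1 h first; 10-point 1:3 curves fitted four-parameter for IC50.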

[2] = molecular target: T2, PI3K-α (PIK3CA) wild-type (WT), p110α/p85α complex (Homo sapiens, UniProt P42336); assay: PI3K-alpha kinase (PIK3CA) biochemical activity, ADP-Glo, wild-type; details: Soy PI lipid substrate
T2 construct: Recombinant, catalytically active human full length PIK3KA Wild-type and H1047R mutant; 6×His (N); purchased EMD Millipore Sigma 14-602M
Outline: as §1

T1 sequence (P42336 whole entry H1047R): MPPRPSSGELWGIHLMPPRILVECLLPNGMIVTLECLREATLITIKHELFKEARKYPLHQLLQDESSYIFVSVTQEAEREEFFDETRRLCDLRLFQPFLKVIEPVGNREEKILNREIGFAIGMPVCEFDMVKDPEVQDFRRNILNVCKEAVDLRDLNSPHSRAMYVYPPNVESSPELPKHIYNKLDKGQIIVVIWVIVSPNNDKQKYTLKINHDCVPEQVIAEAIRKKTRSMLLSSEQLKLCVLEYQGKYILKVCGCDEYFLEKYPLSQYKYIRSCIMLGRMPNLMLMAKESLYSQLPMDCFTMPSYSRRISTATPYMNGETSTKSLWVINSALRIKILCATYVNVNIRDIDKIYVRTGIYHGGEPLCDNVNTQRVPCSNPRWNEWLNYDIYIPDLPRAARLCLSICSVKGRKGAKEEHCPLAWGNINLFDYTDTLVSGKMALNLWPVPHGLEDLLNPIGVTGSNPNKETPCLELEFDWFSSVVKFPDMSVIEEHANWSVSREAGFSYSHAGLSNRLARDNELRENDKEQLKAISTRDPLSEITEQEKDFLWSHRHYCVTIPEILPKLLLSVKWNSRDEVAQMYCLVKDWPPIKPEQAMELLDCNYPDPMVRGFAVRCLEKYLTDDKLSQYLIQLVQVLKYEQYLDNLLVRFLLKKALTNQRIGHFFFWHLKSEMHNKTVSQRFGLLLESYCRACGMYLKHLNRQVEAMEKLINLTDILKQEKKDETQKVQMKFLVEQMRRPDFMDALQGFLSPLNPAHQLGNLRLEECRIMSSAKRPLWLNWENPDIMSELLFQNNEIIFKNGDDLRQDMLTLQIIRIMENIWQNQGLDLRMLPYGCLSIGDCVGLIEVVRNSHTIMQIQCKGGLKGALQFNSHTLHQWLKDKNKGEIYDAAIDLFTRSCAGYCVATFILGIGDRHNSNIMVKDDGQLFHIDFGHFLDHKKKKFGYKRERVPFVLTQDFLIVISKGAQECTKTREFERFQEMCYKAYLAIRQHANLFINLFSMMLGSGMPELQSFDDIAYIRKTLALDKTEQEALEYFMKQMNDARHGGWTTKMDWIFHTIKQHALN
T1 sequence (P27986 whole entry partner): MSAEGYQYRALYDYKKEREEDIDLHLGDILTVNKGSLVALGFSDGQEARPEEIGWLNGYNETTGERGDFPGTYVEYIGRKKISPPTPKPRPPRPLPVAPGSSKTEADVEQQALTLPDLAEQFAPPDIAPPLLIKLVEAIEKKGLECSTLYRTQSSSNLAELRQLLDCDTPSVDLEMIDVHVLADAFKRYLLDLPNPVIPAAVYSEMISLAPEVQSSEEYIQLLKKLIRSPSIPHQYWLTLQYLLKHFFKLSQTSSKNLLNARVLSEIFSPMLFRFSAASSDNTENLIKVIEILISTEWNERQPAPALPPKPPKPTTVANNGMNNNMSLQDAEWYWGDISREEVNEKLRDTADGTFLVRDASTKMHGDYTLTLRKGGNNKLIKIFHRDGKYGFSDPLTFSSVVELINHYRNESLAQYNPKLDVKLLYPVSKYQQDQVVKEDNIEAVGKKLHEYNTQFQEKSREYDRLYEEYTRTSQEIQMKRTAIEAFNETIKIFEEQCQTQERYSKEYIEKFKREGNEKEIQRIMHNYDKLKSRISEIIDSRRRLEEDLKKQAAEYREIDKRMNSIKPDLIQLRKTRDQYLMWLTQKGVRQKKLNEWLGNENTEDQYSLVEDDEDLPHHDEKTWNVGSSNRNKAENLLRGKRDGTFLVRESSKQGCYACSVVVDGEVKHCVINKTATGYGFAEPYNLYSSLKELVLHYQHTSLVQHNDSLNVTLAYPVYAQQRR

Row | SMILES | pIC50 [1] | pIC50 [2]
1 | Cc1cc(C(C)Nc2ccccc2C(=O)O)c2oc(-c3ccc4c(c3)c(C)nn4C)cc(=O)c2c1 (single isomer, unassigned) [Example 165, 2-[1-[2-(1,3-Dimethylindazol-5-yl)-6-methyl-4-oxo-chromen-8-yl]ethylamino]benzoic acid] | > 6.30 | > 6.30
2 | CC(Nc1ccc(Cl)nc1C(=O)O)c1cc(C(F)(F)F)cc2c(=O)cc(-c3cc4ccccc4[nH]3)oc12 (single isomer, unassigned) [Example 100, 6-Chloro-3-[1-[2-(1H-indol-2-yl)-4-oxo-6-(trifluoromethyl)chromen-8-yl]ethylamino]pyridine-2-carboxylic acid] | > 6.30 | < 5.00
3 | Cc1cc(C(C)Nc2ccccc2C(=O)O)c2oc(-c3ccc4cc[nH]c4c3)cc(=O)c2c1 (single isomer, unassigned) [Example 21, 2-[1-[2-(1H-Indol-6-yl)-6-methyl-4-oxo-chromen-8-yl]ethylamino]benzoic acid] | > 6.30 | 6.00 to 6.30
4 | Cc1cn2cc(-c3oc4c(C(C)Nc5ccccc5C(=O)O)cc(F)cc4c(=O)c3C)ccc2n1 (single isomer, unassigned) [Example 56, 2-[1-[6-Fluoro-3-methyl-2-(2-methylimidazo[1,2-a]pyridin-6-yl)-4-oxo-chromen-8-yl]ethylamino]benzoic acid] | < 5.00 | < 5.00
5 | Cc1cc(C(C)Nc2ccccc2C(=O)O)c2oc(-c3cn(C)c4ccccc34)c(C)c(=O)c2c1 (single isomer, unassigned) [Example 140, 2-[1-[3,6-Dimethyl-2-(1-methylindol-3-yl)-4-oxo-chromen-8-yl]ethylamino]benzoic acid] | > 6.30 | 5.30 to 6.00
6 | Cc1cc(C(C)Nc2ccccc2C(=O)O)c2oc(-n3cnc4ccccc43)cc(=O)c2c1 (single isomer, unassigned) [Example 84, 2-[1-[2-(Benzimidazol-1-yl)-6-methyl-4-oxo-chromen-8-yl]ethylamino]benzoic acid] | > 6.30 | 5.00 to 5.30
7 | Cc1cc(C(C)Nc2ccccc2C(=O)O)c2oc(-c3ccc4c(c3)CN(C)C4=O)c(C)c(=O)c2c1 (single isomer, unassigned) [Example 137, 2-[1-[3,6-Dimethyl-2-(2-methyl-1-oxo-isoindolin-5-yl)-4-oxo-chromen-8-yl]ethylamino]benzoic acid] | > 6.30 | 5.30 to 6.00
8 | Cc1cc(C(C)Nc2ccccc2C(=O)O)c2oc(-c3cc4ccncc4o3)cc(=O)c2c1 (single isomer, unassigned) [Example 39, 2-[1-(2-Furo[2,3-c]pyridin-2-yl-6-methyl-4-oxo-chromen-8-yl)ethylamino]benzoic acid] | > 6.30 | 5.30 to 6.00
9 | Cc1cc(C(C)Nc2ccccc2C(=O)O)c2oc(-n3cc4ccccc4n3)cc(=O)c2c1 (single isomer, unassigned) [Example 50, 2-[1-(2-Indazol-2-yl-6-methyl-4-oxo-chromen-8-yl)ethylamino]benzoic acid] | > 6.30 | 5.30 to 6.00
10 | Cc1cc(C(C)Nc2ccccc2C(=O)O)c2oc(-c3ccn4c(-c5ncco5)c(C)nc4c3)cc(=O)c2c1 (single isomer, unassigned) [Example 133, 2-[1-[6-Methyl-2-(2-methyl-3-oxazol-2-yl-imidazo[1,2-a]pyridin-7-yl)-4-oxo-chromen-8-yl]ethylamino]benzoic acid] | < 5.00 | < 5.00
11 | Cc1cc(C(C)Nc2ccc(Cl)nc2C(=O)O)c2oc(-c3ccc4nc(C)cn4c3)cc(=O)c2c1 (single isomer, unassigned) [Example 179, 6-Chloro-3-[1-[6-methyl-2-(2-methylimidazo[1,2-a]pyridin-6-yl)-4-oxo-chromen-8-yl]ethylamino]pyridine-2-carboxylic acid] | 6.00 to 6.30 | 5.00 to 5.30
12 | Cc1cc(C(C)Nc2ccccc2C(=O)O)c2oc(-c3ccc4nc(C)cn4n3)c(C)c(=O)c2c1 (single isomer, unassigned) [Example 142, 2-[1-[3,6-Dimethyl-2-(2-methylimidazo[1,2-b]pyridazin-6-yl)-4-oxo-chromen-8-yl]ethylamino]benzoic acid] | > 6.30 | 5.30 to 6.00
13 | Cc1cc(C(C)Nc2ccccc2C(=O)O)c2oc(-c3ccc4cc(C)[nH]c4n3)cc(=O)c2c1 (single isomer, unassigned) [Example 20, 2-[1-[6-Methyl-2-(2-methyl-1H-pyrrolo[2,3-b]pyridin-6-yl)-4-oxo-chromen-8-yl]ethylamino]benzoic acid] | > 6.30 | 5.30 to 6.00
14 | Cc1cc(C(C)Nc2ccccc2C(=O)O)c2oc(-c3ccc4nc(C)cn4n3)cc(=O)c2c1 (single isomer, unassigned) [Example 69, 2-[1-[6-Methyl-2-(2-methylimidazo[1,2-b]pyridazin-6-yl)-4-oxo-chromen-8-yl]ethylamino]benzoic acid] | > 6.30 | 5.30 to 6.00
15 | Cc1cc([C@@H](C)Nc2ccc(C)nc2C(=O)O)c2oc(-c3ccc4nn(C)cc4c3)c(C)c(=O)c2c1 [Example 200, 3-[[(1R)-1-[3,6-Dimethyl-2-(2-methylindazol-5-yl)-4-oxo-chromen-8-yl]ethyl]amino]-6-methyl-pyridine-2-carboxylic acid] | > 6.30 | 6.00 to 6.30
16 | CC(Nc1ccc(Cl)nc1C(=O)O)c1cc(C(F)(F)F)cc2c(=O)cc(-c3cc(Cl)c4nn(C)cc4c3)oc12 (stereo not drawn) [Example 173, 6-Chloro-3-[1-[2-(7-chloro-2-methyl-indazol-5-yl)-4-oxo-6-(trifluoromethyl)chromen-8-yl]ethylamino]pyridine-2-carboxylic acid] | > 6.30 | < 5.00

More lines, now with the values ahead:

Row | pIC50 [1] | pIC50 [2] | SMILES
17 | > 6.30 | 5.00 to 5.30 | Cc1cc(C(C)Nc2ccccc2C(=O)O)c2oc(-c3nn(C)c4ccccc34)cc(=O)c2c1 (stereo not drawn) [Example 12, 2-[1-[6-Methyl-2-(1-methylindazol-3-yl)-4-oxo-chromen-8-yl]ethylamino]benzoic acid]
18 | > 6.30 | 5.30 to 6.00 | Cc1cc(C(C)Nc2ccccc2C(=O)O)c2oc(-c3ccc4cncn4c3)cc(=O)c2c1 (single isomer, unassigned) [Example 79, 2-[1-(2-Imidazo[1,5-a]pyridin-6-yl-6-methyl-4-oxo-chromen-8-yl)ethylamino]benzoic acid]
19 | > 6.30 | 5.30 to 6.00 | Cc1cc(C(C)Nc2ccccc2C(=O)O)c2oc(-c3cccc4c3cnn4C)cc(=O)c2c1 (single isomer, unassigned) [Example 136, 2-[1-[6-Methyl-2-(1-methylindazol-4-yl)-4-oxo-chromen-8-yl]ethylamino]benzoic acid]
20 | 6.00 to 6.30 | < 5.00 | Cc1cc(C(C)Nc2ccccc2C(=O)O)c2oc(-c3ccn4cnnc4c3)cc(=O)c2c1 (single isomer, unassigned) [Example 161, 2-[1-[6-Methyl-4-oxo-2-([1,2,4]triazolo[4,3-a]pyridin-7-yl)chromen-8-yl]ethylamino]benzoic acid]
21 | 6.00 to 6.30 | < 5.00 | Cc1cc(C(C)Nc2ccccc2C(=O)O)c2oc(-c3ccc4nn(CC(C)(C)O)cc4c3)cc(=O)c2c1 (single isomer, unassigned) [Example 122, 2-[1-[2-[2-(2-Hydroxy-2-methyl-propyl)indazol-5-yl]-6-methyl-4-oxo-chromen-8-yl]ethylamino]benzoic acid]
22 | > 6.30 | > 6.30 | Cc1cc(C(C)Nc2ccccc2C(=O)O)c2oc(-c3cccn4nccc34)cc(=O)c2c1 (single isomer, unassigned) [Example 106, 2-[1-(6-Methyl-4-oxo-2-pyrazolo[1,5-a]pyridin-4-yl-chromen-8-yl)ethylamino]benzoic acid]
23 | > 6.30 | 5.30 to 6.00 | Cc1cc(C(C)Nc2ccccc2C(=O)O)c2oc(-n3ncc4cc(F)ccc43)cc(=O)c2c1 (single isomer, unassigned) [Example 89, 2-[1-[2-(5-Fluoroindazol-1-yl)-6-methyl-4-oxo-chromen-8-yl]ethylamino]benzoic acid]
24 | 6.00 to 6.30 | < 5.00 | Cc1cc(C(C)Nc2ccccc2C(=O)O)c2oc(-c3ccc4c(cnn4CC4COC4)c3)cc(=O)c2c1 (single isomer, unassigned) [Example 138, 2-[1-[6-Methyl-2-[1-(oxetan-3-ylmethyl)indazol-5-yl]-4-oxo-chromen-8-yl]ethylamino]benzoic acid]
